{"source": "patent US7172875B2", "about": "“Identifying inhibitors of intracellular protein fibrillization” (The Ohio State University Research Foundation, priority 2003, dated 2007)", "key": {"htau40 [1]": {"target": "T1, htau40 (Homo sapiens, UniProt P10636)", "T1 construct": "His-tag; made in house", "T1 sequence (P10636 1-441 isoform P10636-8)": "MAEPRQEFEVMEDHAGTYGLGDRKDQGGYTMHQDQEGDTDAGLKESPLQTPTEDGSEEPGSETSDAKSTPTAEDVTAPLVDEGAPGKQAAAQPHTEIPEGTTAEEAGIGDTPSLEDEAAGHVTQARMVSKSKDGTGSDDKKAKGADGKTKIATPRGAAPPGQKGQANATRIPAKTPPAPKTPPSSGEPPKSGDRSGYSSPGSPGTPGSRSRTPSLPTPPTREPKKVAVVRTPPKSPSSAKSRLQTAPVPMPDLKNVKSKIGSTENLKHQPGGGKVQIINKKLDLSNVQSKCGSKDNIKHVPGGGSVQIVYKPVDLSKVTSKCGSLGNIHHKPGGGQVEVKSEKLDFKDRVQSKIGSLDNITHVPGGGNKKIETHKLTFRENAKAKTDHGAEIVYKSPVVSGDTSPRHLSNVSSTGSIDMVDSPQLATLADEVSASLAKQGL", "assay": "Disaggregation of preaggregated tau followed by ThS fluorescence", "type": "biochemical"}, "α-synuclein [2]": {"target": "T2, α-synuclein (Homo sapiens, UniProt P37840)", "T2 construct": "His-tag; made in house", "assay": "α-synuclein polymerization, electron microscopy", "type": "biochemical", "settings": "37° C.; standard polymerization conditions", "protocol": "(§1) α-synuclein Polymerization Assays. Under standard conditions, α-synuclein (4–70 μM) was incubated with AA or other polymerization inducers (25–3000 μM) in Assembly Buffer (10 mM HEPES, pH 7.4, 100 mM NaCl, 5 mM DTT) at 37° C. for 3–26 h, without agitation. Various inducer concentrations were prepared by serial dilution of stock solutions. Control reactions were normalized for 1:1 H2O isopropanol vehicle, which was limited to 5% in all reactions. Samples were processed for electron microscopy and fluorescence spectroscopy as described below.\nElectron Microscopy. Aliquots of polymerization reactions were taken, treated with 2% glutaraldehyde (final concentration), mounted on formvar/carbon coated 300 mesh grids, and negatively stained with 2% uranyl acetate as described previously (King et al., 1999). Images were viewed in a Phillips CM 12 transmission electron microscope operated at 65 kV. Random images were captured on film at 8,000–22,000X magnification, digitized at 600 dots-per-inch resolution, and imported into Optimas 6.5.1 for quantification of filament lengths and numbers. Individual filaments were defined as any object greater than 50 nm in its long axis and were counted manually."}, "htau40 [3]": {"target": "T1, htau40", "settings": "synthetic filaments aggregated 3 h with AA; Ref. 12; cited from earlier work"}, "α-synuclein [4]": {"target": "T2, α-synuclein", "assay": "α-synuclein polymerization, Thioflavin T assay", "type": "biochemical", "protocol": "as §1\nThioflavin T assay. α-synuclein (4–70 μM) was incubated in Assembly Buffer in the presence of 20 μM thioflavin T, with or without assembly inducers, in 96-well plates. Aggregation was monitored by following thioflavin T fluorescence (λex=[…]; in a Flex Station plate reader (Molecular Devices, Sunnyvale, Calif.)."}, "htau40 [5]": {"target": "T1, htau40", "assay": "tau aggregation assay, electron microscopy quantification of filament lengths", "type": "biochemical", "settings": "10 μM concentration; data not shown", "protocol": "Aggregation assays. Under standard conditions, htau40 (4 μM) was incubated without agitation in Assembly Buffer (10 mM HEPES, pH 7.4, 100 mM NaCl, 5 mM dithiothreitol) at 37° C. for up to 168 h in the presence or absence of fibrillization inducer (AA, alkyl sulfate detergents, or carboxylate modified polystyrene beads). All samples incubated for more than 24 h were kept under argon in parafilm-sealed tubes. Samples were processed for assay by electron microscopy as described below.\nElectron Microscopy Assays. […] Random images were viewed in a Phillips CM 12 transmission electron microscope operated at 65 kV, captured on film at 8,000–100,000-fold magnification, digitized at 600 dots-per-inch resolution, and imported into Optimas 6.5.1 for quantification of filament lengths and numbers. Individual filaments (defined as any object greater than 50 nm in its long axis with both ends visible in the field of view) were counted manually. […]\n[formula] where y is total filament length (50 nm cutoff) measured at time t, yo is total filament length at time zero, t50 is time to 50% maximum fibrillization, A is the maximum total filament length at equilibrium, and kapp is the apparent first order rate constant for fibril growth in units of time^−1. […]"}, "[6]": {"assay": "CMC measurements for SDS (Corrin-Harkins analysis of CMC depression)", "type": "physicochemical", "settings": "literature values", "protocol": "CMC values for SDS were estimated at 37° C. using N-phenyl-1-naphthylamine as described previously, except that various concentrations of protamine, histone, α-synuclein, or htau40 were included with the samples. Detergent stock solutions were prepared in 1:1 water isopropanol.\nAnalytical Methods. Dependence of detergent CMC on protein concentration was fit to the empirical Corrin-Harkins equation: log CMC=−kCH(log n)+bCH (1) where n is the molar concentration of protein or salt and kCH and bCH are constants. The slope of these curves, kCH, approximates the proportion of detergent micelles that are ionized."}}}
{"compound": "CCCCC/C=C\\C/C=C\\C/C=C\\C/C=C\\CCCC(=O)O", "note": "[AA, Arachidonic acid]", "values": [{"measurement": "decay slower than dilution in buffer alone", "setting": "htau40 [1]; 50 μM arachidonic acid", "value": 50, "unit": "fold"}, {"measurement": "first order decay rate of ThS fluorescence after 20-fold dilution", "setting": "htau40 [1]; additive in Assembly Buffer: 50 μM arachidonic acid or 2 μM htau40", "value": 0.5, "unit": "h⁻¹"}, {"measurement": "induction of α-synuclein polymerization seen by electron microscopy", "setting": "α-synuclein [2]", "value": "induced"}, {"measurement": "slope constant b of exponential filament length distribution", "setting": "htau40 [3]", "value": "−5.4±0.2", "unit": "μm^−1"}]}
{"compound": "CCCCCCCCCCCCOS(=O)(=O)[O-].[Na+]", "note": "[C12H25SO4Na]", "values": [{"measurement": "threshold inducer concentration for induction of α-synuclein fibrillization", "setting": "α-synuclein [4]; 16 h at 37° C., α-synuclein 5-30 μM", "value": "approximately 100 μM"}]}
{"compound": "Heparin", "values": [{"measurement": "Thioflavin T signal", "setting": "α-synuclein [4]; heparin 25–3000 μM saccharide monomer, both forms of heparin", "value": "< 600", "unit": "counts"}, {"measurement": "induction of α-synuclein fibrillization (Thioflavin T fluorescence)", "setting": "α-synuclein [4]; α-synuclein 30 μM, 16 h at 37° C.", "value": "only weakly"}, {"measurement": "induction of α-synuclein polymerization seen by electron microscopy", "setting": "α-synuclein [2]", "value": "little measurable polymerization"}]}
{"compound": "Phosphatidylserine", "values": [{"measurement": "induction of α-synuclein polymerization seen by electron microscopy", "setting": "α-synuclein [2]", "value": "Abundant filaments and/or filamentous conglomerates"}]}
{"compound": "phosphatidic acid", "values": [{"measurement": "induction of α-synuclein polymerization seen by electron microscopy", "setting": "α-synuclein [2]", "value": "second in potency"}]}
{"compound": "phosphatidylcholine", "values": [{"measurement": "induction of α-synuclein polymerization seen by electron microscopy", "setting": "α-synuclein [2]", "value": "least efficient inducer"}]}
{"compound": "thioflavin S [ThS]", "values": [{"measurement": "inhibition of tau fibrillization", "setting": "htau40 [5]", "value": "not inhibitory"}]}
{"compound": "uteroglobulin^4-14: hydrophobic undecapeptide of neutral net charge with two positive charges; literature values (PSFQRVIETLL; UniProt P11684 25-35, looked up, fragment)", "values": [{"measurement": "potency of CMC depression relative to NaCl on a molar basis", "setting": "[6]", "value": 1000, "unit": "fold"}]}
